# Experimental data published in patent US7803816B2, “MCH receptor antagonists” (Hoffmann-La Roche Inc., priority 2005, dated 2010).
# Counter-ions that a name gives are not always drawn.
# Target: T1, recombinant human MCHR1-receptors (Homo sapiens, UniProt Q99705)
# T1 construct: expressed in transfected cells
# Experiment: MCHR filter binding assay (competition binding)
# Conditions: membranes from CHO-K1 cells expressing human MCHR1; 0.2 nM [Phe13,[125I]Tyr19]-MCH; read-out: IC50 (nM), in vitro activity (binding assay)
# Procedure: MCHR Filter Binding Assay
# Competition binding assays were performed using membranes from CHO-K1 cells stably expressing the recombinant human MCHR1-receptors. Binding reactions (90 μl, final volume) were carried out at rt by incubating 2.8 μg membranes with 0.2 nM [Phe^13,[^125I]Tyr^19]-MCH (PerkinElmer) in the absence or presence of various concentrations of competing ligands in binding buffer (50 mM HEPES, 2.5 mM CaCl2, 0.05 mM BSA, 1 mM phenanthroline, 0.03 mM Triton X-100). [Phe^13,[^125I]Tyr^19]-MCH was added 15 min following the addition of unlabeled competing ligands, and the reactions incubated for a 1 h period. The reactions were terminated by rapid filtration over pretreated 96-well filter plates (Millipore; MultiScreen 0.65 μm GFB filter plates). Filter Plates were treated for 12 h at 4° C. with a 0.5% polyvinylpyrrolidone solution containing 1% BSA and 0.1% Tween 20, and then washed with an ice-cold solution of 10 mM Tris, pH 7.5 (5×200 μl). The plates were drained following a 5 min incubation with binding buffer (200 μl) at rt. Following termination of the binding reactions, the filters were washed with ice-cold binding buffer (4×200 μl). The filter plates were air dried for 30 min, scintillation cocktail (60 μl) added to each well and radioactivity bound to the plates was determined using a Micro-beta plate reader (Wallace/PerkinElmer).
# T1 sequence (Q99705 whole entry): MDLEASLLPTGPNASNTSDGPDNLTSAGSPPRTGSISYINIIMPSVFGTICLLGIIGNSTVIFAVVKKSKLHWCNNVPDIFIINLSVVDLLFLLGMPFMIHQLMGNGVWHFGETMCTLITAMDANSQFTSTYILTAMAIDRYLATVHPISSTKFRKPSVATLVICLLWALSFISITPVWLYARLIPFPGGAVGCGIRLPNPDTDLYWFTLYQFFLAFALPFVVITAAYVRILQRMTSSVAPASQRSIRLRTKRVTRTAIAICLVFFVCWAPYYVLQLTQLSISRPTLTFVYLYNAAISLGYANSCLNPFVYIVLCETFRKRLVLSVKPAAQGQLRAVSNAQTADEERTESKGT
row,Structure (SMILES),IC50
1,"CO[C@H]1CN(C[C@H]2Cc3ccc(Br)cc3C2)CC[C@@H]1n1c(C(C)C)nc2cc(C)ccc21 [Example 17, 1-[(3S,4S)-1-((S)-5-Bromo-indan-2-ylmethyl)-3-methoxy-piperidin-4-yl]-2-isopropyl-5-methyl-1H-benzoimidazole]",20 to 200 nM
2,"CO[C@@H]1CN(C[C@H]2Cc3ccc(Br)cc3C2)CC[C@H]1n1c(C(C)C)nc2cc(C)ccc21 [Example 18, 1-[(3R,4R)-1-((S)-5-Bromo-indan-2-ylmethyl)-3-methoxy-piperidin-4-yl]-2-isopropyl-5-methyl-1H-benzoimidazole]",20 to 200 nM
3,"CO[C@H]1CN(CC2Cc3ccc(Cl)cc3C2)CC[C@@H]1n1c(C)nc2cc(C)ccc21 (stereo partly drawn) [Example 19, 1-[(3S,4S)-1-(5-Chloro-indan-2-ylmethyl)-3-methoxy-piperidin-4-yl]-2,5-dimethyl-1H-benzoimidazole; dihydrochloride]",20 to 200 nM
4,"CO[C@@H]1CN(CC2Cc3ccc(F)cc3C2)CC[C@H]1n1c(C)nc2cc(C)ccc21 (stereo partly drawn) [Example 20, 1-[(3R,4R)-1-(5-Fluoro-indan-2-ylmethyl)-3-methoxy-piperidin-4-yl]-2,5-dimethyl-1H-benzoimidazole]",20 to 200 nM
5,"Cc1ccc2c(c1)nc(C)n2[C@@H]1CCN(C[C@@H]2Cc3ccc(NC(=O)C(C)C)cc3C2)C[C@H]1OCC(C)(C)O [Example 21, N-{(R)-2-[(3R,4R)-4-(2,5-Dimethyl-benzoimidazol-1-yl)-3-(2-hydroxy-2-methyl-propoxy)-piperidin-1-ylmethyl]-indan-5-yl}-isobutyramide; dihydrochloride]",20 to 200 nM
6,"CSC1CN(C[C@@H]2Cc3ccc(NC(=O)C(C)C)cc3C2)CCC1n1c(C)nc2cc(C)ccc21 (stereo partly drawn) [Example 22, N-{(R)-2-[4-(2,5-Dimethyl-benzoimidazol-1-yl)-3-methylsulfanyl-piperidin-1-ylmethyl]-indan-5-yl}-isobutyramide; dihydrochloride]",20 to 200 nM
7,"Cc1ccc2c(c1)nc(CC(C)(C)O)n2C1CCN(CC2Cc3ccc(F)cc3C2)CC1 (centres unmarked) [Example 23, 1-{1-[1-(5-Fluoro-indan-2-ylmethyl)-piperidin-4-yl]-5-methyl-1H-benzoimidazol-2-yl}-2-methyl-propan-2-ol; dihydrochloride]",20 to 200 nM
8,"CO[C@@H]1CN(CC2Cc3ccccc3C2)CC[C@H]1n1c(C(C)C)nc2cc(C)ccc21 [Example 24, 1-((3R,4R)-1-Indan-2-ylmethyl-3-methoxy-piperidin-4-yl)-2-isopropyl-5-methyl-1H-benzoimidazole]",20 to 200 nM
9,"CCC(=O)Nc1ccc2c(c1)C[C@H](CN1CC[C@@H](n3c(C)nc4cc(F)ccc43)[C@H](OC)C1)C2 [Example 25, N-{(R)-2-[(3R,4R)-4-(5-Fluoro-2-methyl-benzoimidazol-1-yl)-3-methoxy-piperidin-1-ylmethyl]-indan-5-yl}-propionamide; dihydrochloride]",20 to 200 nM
10,"CO[C@@H]1CN(C[C@H]2Cc3ccc(Br)cc3C2)CC[C@H]1n1c(C(C)(C)C)nc2cc(C)ccc21 [Example 26, 1-[(3R,4R)-1-((S)-5-Bromo-indan-2-ylmethyl)-3-methoxy-piperidin-4-yl]-2-tert-butyl-5-methyl-1H-benzoimidazole]",20 to 200 nM
11,"Cc1ccc2c(c1)nc(C)n2C1CCN(C[C@@H]2Cc3ccc(NC(=O)C(C)C)cc3C2)CC1O (stereo partly drawn) [Example 27, N-{(R)-2-[4-(2,5-Dimethyl-benzoimidazol-1-yl)-3-hydroxy-piperidin-1-ylmethyl]-indan-5-yl}-isobutyramide; dihydrochloride]",200 to 5000 nM
12,"CO[C@@H]1CN(C[C@@H]2Cc3ccc(NC(=O)C4CC4)cc3C2)CC[C@H]1n1c(C)nc2cc(F)ccc21 [Example 28, Cyclopropanecarboxylic acid {(R)-2-[(3R,4R)-4-(5-fluoro-2-methyl-benzoimidazol-1-yl)-3-methoxy-piperidin-1-ylmethyl]-indan-5-yl}-amide; dihydrochloride]",200 to 5000 nM
13,"CO[C@H]1CN(CC2Cc3ccccc3C2)CC[C@@H]1n1c(C(C)C)nc2cc(C)ccc21 [Example 29, 1-((3S,4S)-1-Indan-2-ylmethyl-3-methoxy-piperidin-4-yl)-2-isopropyl-5-methyl-1H-benzoimidazole]",200 to 5000 nM
14,"Cc1ccc2c(c1)nc(Cl)n2C1CCN(C[C@@H]2Cc3ccc(NC(=O)C4CC4)cc3C2)CC1 [Example 30, Cyclopropanecarboxylic acid {(R)-2-[4-(2-chloro-5-methyl-benzoimidazol-1-yl)-piperidin-1-ylmethyl]-indan-5-yl}-amide; dihydrochloride]",200 to 5000 nM
15,"Cc1ccc2c(c1)nc(Cl)n2C1CCN(C[C@@H]2Cc3ccc(N)cc3C2)CC1 [Example 31, (R)-2-[4-(2-Chloro-5-methyl-benzoimidazol-1-yl)-piperidin-1-ylmethyl]-indan-5-ylamine; dihydrochloride]",200 to 5000 nM
16,"Cc1ccc2c(c1)nc(-c1ccccc1)n2C1CCN(C[C@@H]2Cc3ccc(NC(=O)C(C)C)cc3C2)CC1 [Example 33, N-{(R)-2-[4-(5-Methyl-2-phenyl-benzoimidazol-1-yl)-piperidin-1-ylmethyl]-indan-5-yl}-isobutyramide]",< 20 nM
17,"CO[C@H]1CN(C[C@@H]2Cc3ccc(NC(=O)C(C)C)cc3C2)CC[C@@H]1n1c(C)nc2cc(C)ccc21 [Example 34, N-{(R)-2-[(3S,4S)-4-(2,5-Dimethyl-benzoimidazol-1-yl)-3-methoxy-piperidin-1-ylmethyl]-indan-5-yl}-isobutyramide]",< 20 nM
18,"Cc1ccc2c(c1)nc(C)n2C1CCN(C[C@@H]2Cc3ccc(NC(=O)C(C)C)cc3C2)CC1 [Example 35, N-{(R)-2-[4-(2,5-Dimethyl-benzoimidazol-1-yl)-piperidin-1-ylmethyl]-indan-5-yl}-isobutyramide]",< 20 nM
19,"Cc1ccc2c(c1)nc(C)n2[C@@H]1CCN(C[C@@H]2Cc3ccc(NC(=O)C(C)C)cc3C2)C[C@H]1CO [Example 36, N-{(R)-2-[4-(2,5-Dimethyl-benzoimidazol-1-yl)-3-hydroxymethyl-piperidin-1-ylmethyl]-indan-5-yl}-isobutyramide]",< 20 nM
20,"Cc1ccc2c(c1)nc(C)n2C1CCN(C[C@H]2Cc3ccc(NC(=O)Cc4cccs4)cc3C2)CC1 [Example 38, N-{(S)-2-[4-(2,5-Dimethyl-benzoimidazol-1-yl)-piperidin-1-ylmethyl]-indan-5-yl}-2-thiophen-2-yl-acetamide]",< 20 nM
21,"CO[C@@H]1CN(C[C@H]2Cc3ccc(NC(=O)C(C)C)cc3C2)CC[C@H]1n1c(C)nc2cc(C)ccc21 [Example 39, N-{(S)-2-[(3R,4R)-4-(2,5-Dimethyl-benzoimidazol-1-yl)-3-methoxy-piperidin-1-ylmethyl]-indan-5-yl}-isobutyramide; dihydrochloride]",< 20 nM
22,"COC(=O)Nc1ccc2c(c1)C[C@H](CN1CCC(n3c(C(C)(C)C)nc4cc(C)ccc43)CC1)C2 [Example 40, {(R)-2-[4-(2-tert-Butyl-5-methyl-benzoimidazol-1-yl)-piperidin-1-ylmethyl]-indan-5-yl}-carbamic acid methyl ester]",< 20 nM
23,"Cc1ccc2c(c1)nc(C(C)(C)C)n2C1CCN(C[C@@H]2Cc3ccc(NC(=O)C(C)C)cc3C2)CC1 [Example 41, N-{(R)-2-[4-(2-tert-Butyl-5-methyl-benzoimidazol-1-yl)-piperidin-1-ylmethyl]-indan-5-yl}-isobutyramide]",< 20 nM
24,"COC(=O)Nc1ccc2c(c1)C[C@H](CN1CCC(n3c(-c4ccccc4)nc4cc(C)ccc43)CC1)C2 [Example 42, {(R)-2-[4-(5-Methyl-2-phenyl-benzoimidazol-1-yl)-piperidin-1-ylmethyl]-indan-5-yl}-carbamic acid methyl ester]",< 20 nM
25,"CO[C@@H]1CN(C[C@H]2Cc3ccc(NC(=O)C(C)C)cc3C2)CC[C@H]1n1c(C)nc2cc(C)ccc21 [Example 43, N-{(S)-2-[(3R,4R)-4-(2,5-Dimethyl-benzoimidazol-1-yl)-3-methoxy-piperidin-1-ylmethyl]-indan-5-yl}-isobutyramide]",20 to 200 nM
26,"CCCC(=O)Nc1ccc2c(c1)C[C@@H](CN1CCC(n3c(C)nc4cc(C)ccc43)CC1)C2 [Example 44, -{(S)-2-[4-(2,5-Dimethyl-benzoimidazol-1-yl)-piperidin-1-ylmethyl]-indan-5-yl}-butyramide]",20 to 200 nM
27,"CCC(=O)Nc1ccc2c(c1)C[C@H](CN1CC[C@@H](n3c(C(C)C)nc4cc(C)ccc43)[C@H](OC)C1)C2 [Example 45, N-{(R)-2-[(3R,4R)-4-(2-Isopropyl-5-methyl-benzoimidazol-1-yl)-3-methoxy-piperidin-1-ylmethyl]-indan-5-yl}-propionamide]",20 to 200 nM
28,"Cc1ccc2c(c1)nc(C)n2C1CCN(CC2Cc3ccc(NC(=O)C(C)C)cc3C2)CC1 (centres unmarked) [Example 46, N-{2-[4-(2,5-Dimethyl-benzoimidazol-1-yl)-piperidin-1-ylmethyl]-indan-5-yl}-isobutyramide]",20 to 200 nM
29,"CO[C@@H]1CN(C[C@@H]2Cc3ccc(NC(=O)C(C)C)cc3C2)CC[C@H]1n1c(C)nc2cc(C)ccc21 [Example 47, N-{(R)-2-[(3R,4R)-4-(2,5-Dimethyl-benzoimidazol-1-yl)-3-methoxy-piperidin-1-ylmethyl]-indan-5-yl}-isobutyramide]",20 to 200 nM
